In patent EP3002287B1, “Thiochromeno[2,3-c]quinolin-12-one derivatives and their use as topoisomerase inhibitors” (National Defense Medical Center, priority 2014, dated 2016):

Columns and labels:
TOP II = molecular target: T1, TOP II (Homo sapiens, UniProt P11388); assay: Topoisomerase II activity assay (TOP II-catalyzed relaxation of plasmid DNA); type: biochemical; settings: primary assay at 25 and/or 50 µM
T1 construct: purchased TopoGEN TG-2000H-1
Method: We also performed TOP 11-catalyzed relaxation of plasmid DNA assays(Fig. 5-7) to evaluate if compounds could inhibit TOP II. […] The IC50 value of compounds 7, N7, N8, N14, N15, N18, and N19 were about 10, 10, 1, 10, 5, 1, and 1 µM, respectively (detect by TopoGEN TG2005H, TG-2000H-1).

PC-3 = assay: MTT assay for cell cytotoxicity; type: cell-based, human; settings: Homo sapiens, 72 h, at least three independent experiments, read-out: MTT assay (IC50 ± SD) PC-3
Method: (§1) All of synthesis compounds were evaluated cell cytotoxicity by using MTT colorimetric assay on PC-3 and DU-145 cell lines. DU-145 and PC-3 are human hormone-refractory (androgen-independent) prostatic cancer cell lines from American Type Culture Collection (HTB-81™, ATCC, Rockville, MD)^125 and Bioresource Collection and Research Center (60122, BCRC, Taiwan)^126, respectively. Two of the "classical" cell lines were cultivated in RPMI-1640 medium supplemented with 5% fetal bovine serum (v/v), 100 U/mL penicillin, and […] streptomycin. Approximately 2 x 10^3 cells were seeded into each well of a 96-well plate and incubated in 5% CO2 at 37 °C for 24 h. To evaluate the in vitro cytotoxicity, all the synthetic compounds were dissolved in DMSO, prepared immediately before the experiments and diluted into the complete medium before being added to each well of a 96-well plate. Each compound was then added to the culture medium for designated various concentrations (0.15, 0.5, 1.5, 5, 15 µM). After 72 h, an amount of 100 µL of MTT (1 mg/mL) was added to each well, and the samples were incubated at 37 °C for 4 h. After removing the MTT solution, 100 µL of DMSO was added to each well and incubated at 37 °C for another 20 mins. The absorbency at 560 nm was measured by using an ELISA reader.
(§2) Results are expressed as mean values of at least three independent experiments. The IC50 values of testing compounds were described in Table 1. Table1. Effects of 10-Chloro-12H-thiochromeno[2,3-c]quinolin -12-one derivatives on cytotoxicity by MTT assay.

DU-145 = assay: MTT assay for cell cytotoxicity; type: cell-based, human; settings: Homo sapiens, 72 h, at least three independent experiments, read-out: MTT assay (IC50 ± SD) DU-145
Method: as §1, §2

TOP I = molecular target: T2, TOP I (Homo sapiens, UniProt P11387); assay: Topoisomerase I activity assay (DNA relaxation catalyzed by TOP I); type: biochemical; settings: primary assay at 25 and/or 50 µM
T2 construct: purchased TopoGEN TG2005H
T2 sequence (P11387 1-765): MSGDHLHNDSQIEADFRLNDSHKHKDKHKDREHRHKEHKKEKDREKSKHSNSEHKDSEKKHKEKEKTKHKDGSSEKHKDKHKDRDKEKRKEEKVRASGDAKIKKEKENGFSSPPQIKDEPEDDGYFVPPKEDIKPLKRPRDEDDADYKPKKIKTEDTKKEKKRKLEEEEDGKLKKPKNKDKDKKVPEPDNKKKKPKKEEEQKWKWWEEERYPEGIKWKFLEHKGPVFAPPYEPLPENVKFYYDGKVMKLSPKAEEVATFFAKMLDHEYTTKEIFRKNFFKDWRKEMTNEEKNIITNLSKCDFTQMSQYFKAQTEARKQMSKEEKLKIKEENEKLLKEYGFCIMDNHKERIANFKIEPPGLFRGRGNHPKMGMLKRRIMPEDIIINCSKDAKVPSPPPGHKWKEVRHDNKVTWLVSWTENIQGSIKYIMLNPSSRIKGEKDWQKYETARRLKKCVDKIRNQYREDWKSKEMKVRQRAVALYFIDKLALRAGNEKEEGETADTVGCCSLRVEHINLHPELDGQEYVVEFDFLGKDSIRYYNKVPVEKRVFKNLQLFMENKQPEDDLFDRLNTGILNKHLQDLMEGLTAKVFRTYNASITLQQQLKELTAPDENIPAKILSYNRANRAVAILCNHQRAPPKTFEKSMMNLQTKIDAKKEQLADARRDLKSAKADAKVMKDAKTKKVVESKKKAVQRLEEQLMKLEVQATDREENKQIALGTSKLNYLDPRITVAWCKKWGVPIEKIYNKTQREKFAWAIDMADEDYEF
Method: According to the cell cytotoxicity, compounds 5, 7, 8, 16, 19, N2, N7, N8, N9, N14-N19, and N25 were also selected for primary TOP I and II activities assays at 25 and/or 50 µM (Fig. 2-4).

T1 sequence (P11388 whole entry): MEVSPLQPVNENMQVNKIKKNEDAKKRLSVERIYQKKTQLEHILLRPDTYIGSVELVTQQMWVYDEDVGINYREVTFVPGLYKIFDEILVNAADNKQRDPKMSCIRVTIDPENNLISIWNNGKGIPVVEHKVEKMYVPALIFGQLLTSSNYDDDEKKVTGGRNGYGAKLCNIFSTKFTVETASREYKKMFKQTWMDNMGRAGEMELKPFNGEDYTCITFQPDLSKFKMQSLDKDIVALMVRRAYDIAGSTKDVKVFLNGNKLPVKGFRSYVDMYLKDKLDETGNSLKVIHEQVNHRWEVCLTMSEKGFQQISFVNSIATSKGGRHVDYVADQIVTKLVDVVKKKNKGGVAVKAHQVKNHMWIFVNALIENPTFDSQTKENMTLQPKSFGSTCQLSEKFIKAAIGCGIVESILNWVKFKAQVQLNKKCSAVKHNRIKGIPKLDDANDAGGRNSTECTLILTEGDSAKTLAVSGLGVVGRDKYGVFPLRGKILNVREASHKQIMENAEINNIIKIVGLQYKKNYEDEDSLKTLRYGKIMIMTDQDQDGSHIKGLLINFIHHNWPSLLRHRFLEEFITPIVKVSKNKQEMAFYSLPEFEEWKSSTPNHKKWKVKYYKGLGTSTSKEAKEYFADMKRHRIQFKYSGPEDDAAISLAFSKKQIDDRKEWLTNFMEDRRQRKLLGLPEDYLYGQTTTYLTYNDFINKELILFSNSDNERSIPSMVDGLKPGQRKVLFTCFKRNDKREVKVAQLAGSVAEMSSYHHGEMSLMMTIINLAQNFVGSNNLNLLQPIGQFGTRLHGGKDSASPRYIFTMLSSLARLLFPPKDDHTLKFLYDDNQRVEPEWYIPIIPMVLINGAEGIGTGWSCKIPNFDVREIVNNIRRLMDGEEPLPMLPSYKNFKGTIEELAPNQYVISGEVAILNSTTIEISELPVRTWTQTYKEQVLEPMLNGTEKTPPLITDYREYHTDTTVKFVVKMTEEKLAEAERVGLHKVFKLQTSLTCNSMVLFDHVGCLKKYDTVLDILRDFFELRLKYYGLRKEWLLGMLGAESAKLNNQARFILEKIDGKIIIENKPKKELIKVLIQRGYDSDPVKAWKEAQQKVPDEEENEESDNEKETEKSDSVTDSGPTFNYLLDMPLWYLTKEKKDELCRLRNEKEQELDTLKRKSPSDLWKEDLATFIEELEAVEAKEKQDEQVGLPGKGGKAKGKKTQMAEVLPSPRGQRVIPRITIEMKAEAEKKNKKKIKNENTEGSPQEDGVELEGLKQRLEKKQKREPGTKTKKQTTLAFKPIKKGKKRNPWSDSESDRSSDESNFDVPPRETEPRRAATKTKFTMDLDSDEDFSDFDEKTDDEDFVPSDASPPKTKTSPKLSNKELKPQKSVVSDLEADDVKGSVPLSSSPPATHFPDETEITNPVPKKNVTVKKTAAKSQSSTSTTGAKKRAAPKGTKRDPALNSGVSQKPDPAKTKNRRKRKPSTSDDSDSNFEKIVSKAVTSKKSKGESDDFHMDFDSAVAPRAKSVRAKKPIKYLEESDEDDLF

| Compound | inhibitory effects on TOP II compared with the positive agent VP-16 (TOP II) | IC50 (PC-3) [µM] | IC50 (DU-145) [µM] | inhibitory effects in TOP I activity assay compared with CPT (TOP I) |
| --- | --- | --- | --- | --- |
| O=c1c2cc(Cl)ccc2sc2c(NCCNCCO)nc3ccccc3c12 [Compound N15, 10-Chloro-6-((2-((2-hydroxyethyl)amino)ethyl)amino)-12H-thio chromen[2,3-c]quinolin-12-one] | more potent inhibitory effects than the positive agent VP-16 | 3.44 ± 1.81 | 3.81 ± 1.88 | more potent inhibitory effects than CPT |
| NCCNc1nc2ccccc2c2c(=O)c3cc(Cl)ccc3sc12 [Compound N14, 6-((2-Aminoethyl)amino)-10-chloro-12H-thiochromeno[2,3-c]q uinolin-12-one] | more potent inhibitory effects than the positive agent VP-16 | 1.64 ± 0.55 | 1.8 ± 0.4 | more potent inhibitory effects than CPT |
| CCN(CC)CCNc1nc2ccccc2c2c(=O)c3cc(Cl)ccc3sc12 [Compound N8, 10-Chloro-6-((2-(diethylamino)ethyl)amino)-12H-thiochromen o[2,3-c]quinolin-12-one] | more potent inhibitory effects than the positive agent VP-16 | 1.11 ± 0.69 | 1.73 ± 0.72 | – |
| O=c1c2cc(Cl)ccc2sc2c(NCCCNCCO)nc3ccccc3c12 [Compound N19, 10-Chloro-6-((3-((2-hydroxyethyl)amino)propyl)amino)-12H-th iochromeno[2,3-c]quinolin-12-one] | more potent inhibitory effects than the positive agent VP-16 | 1.98 ± 0.72 | 1.5 ± 1.32 | – |
| CCN(CC)CCCNc1nc2ccccc2c2c(=O)c3cc(Cl)ccc3sc12 [Compound N18, 10-Chloro-6-((3-(diethylamino)propyl)amino)-12H-thiochrome no[2,3-c]quinolin-12-one] | more potent inhibitory effects than the positive agent VP-16 | 2.22 ± 0.21 | 3.53 ± 1.05 | more potent inhibitory effects than CPT |
| O=c1c2cc(Cl)ccc2sc2c(N3CCNCC3)nc3ccccc3c12 [Compound 7, 10-Chloro-6-(piperazin-1-yl)-12H-thiochromeno[2,3-c]quinolin-12-one] | more potent inhibitory effects than the positive agent VP-16 | 2.84 ± 0.64 | 5.01 ± 1.68 | more potent inhibitory effects than CPT |
| CN(C)CCCNc1nc2ccccc2c2c(=O)c3cc(Cl)ccc3sc12 [Compound N17, 10-Chloro-6-((3-(dimethylamino)propyl)amino)-12H-thiochrom eno[2,3-c]quinolin-12-one] | – | 2.27 ± 0.09 | 2.7 ± 0.16 | more potent inhibitory effects than CPT |
| CN(C)CCNc1nc2ccccc2c2c(=O)c3cc(Cl)ccc3sc12 [Compound N7, 10-Chloro-6-((2-(dimethylamino)ethyl)amino)-12H-thiochrome no[2,3-c]quinolin-12-one] | more potent inhibitory effects than the positive agent VP-16 | 2.25 ± 0.61 | 5.94 ± 3.45 | more potent inhibitory effects than CPT |
| O=c1c2cc(Cl)ccc2sc2c(NCc3ccccn3)nc3ccccc3c12 [Compound N26, 10-Chloro-6-((pyridin-2-ylmethyl)amino)-12H-thiochromeno[2,3-c]quinolin-12-one] | – | 14.2 ± 2.22 | 14.8 ± 1.99 | – |
| O=c1c2cc(Cl)ccc2sc2c(N3CCC(O)CC3)nc3ccccc3c12 [Compound 16, 10-Chloro-6-(4-hydroxypiperidin-1-yl)-12H-thiochromeno[2,3-c]quinolin-12-one] | – | 9.55 ± 2.42 | 11.1 ± 4.18 | – |
| CCC(CO)Nc1nc2ccccc2c2c(=O)c3cc(Cl)ccc3sc12 (centres unmarked) [Compound N12, 10-Chloro-6-((1-hydroxybutan-2yl)amino)-12H-thiochromeno[2,3-c]quinolin-12-one] | – | 7.05 ± 2.48 | 6.74 ± 2.14 | – |
| COc1ccc(CCNc2nc3ccccc3c3c(=O)c4cc(Cl)ccc4sc23)cc1 [Compound N31, 10-Chloro-6-((4-methoxyphenethyl)amino)-12H-thiochromeno[2,3-c]quinolin-12-one] | – | > 15 | > 15 | – |
| O=c1c2cc(Cl)ccc2sc2c(N3CCCC3)nc3ccccc3c12 [Compound 20, 10-Chloro-6-(pyrrolidin-1-yl)-12H-thiochromeno[2,3-c]quinolin-12-one] | – | > 15 | > 15 | – |
| O=c1c2cc(Cl)ccc2sc2c(NCC3CCCCC3)nc3ccccc3c12 [Compound N24, 10-Chloro-6-((cyclohexylmethyl)amino)-12H-thiochromeno[2,3-c]quinolin-12-one] | – | 14.8 ± 3.26 | 13.6 ± 3.88 | – |
| NC(N)=Nc1nc2ccccc2c2c(=O)c3cc(Cl)ccc3sc12 [Compound N33, 2-(10-Chloro-12-oxo-12H-thiochromeno[2,3-c]quinolin-6-yl)gu anidine] | – | 6.13 ± 6.98 | 8.11 ± 1.37 | – |
| Nc1ccc(CCNc2nc3ccccc3c3c(=O)c4cc(Cl)ccc4sc23)cc1 [Compound N32, 6-((4-Aminophenethyl)amino)-10-chloro-12H-thiochromeno[2,3-c]quinolin-12-one] | – | 10.1 ± 0.94 | 13.6 ± 1.39 | – |
| O=c1c2cc(Cl)ccc2sc2c(NCc3ccccc3)nc3ccccc3c12 [Compound N25, 6-(Benzylamino)-10-chloro-12H-thiochromeno[2,3-c]quinolin-12-tone] | – | 11.2 ± 1.55 | 13.5 ± 0.69 | more potent inhibitory effects than CPT |
| CCN1CCN(c2nc3ccccc3c3c(=O)c4cc(Cl)ccc4sc23)CC1 [Compound 9, 10-Chloro-6-(4-ethylpiperazin-1-yl)-12H-thiochromeno[2,3-c]q uinolin-12-one] | – | 12 ± 3.41 | > 15 | – |
